“Also recorded” adds a separate entry of the source.
How the values were obtained:
[1] = tested on: lung adenocarcinoma cells HCC2279; assay: CCK8 proliferation activity assay; type: cell-based; conditions: 0, 1, 2, 3, and 4 days after transfection, FIG. 1
Description: (§1) This example related to a process of transfecting an agonist to lung adenocarcinoma cells: after the lung adenocarcinoma cells were passaged to a cell density of about 30-50%, the agonist was transfected to the lung adenocarcinoma cells by lipo3000. 5 μl (100 pmol) of the agonist was added to an EP tube containing 95 μl of a DMEM medium by pipetting and mixing, 5 μl of lipo3000 was added to the EP tube containing 95 μl of the DMEM medium by pipetting and mixing, the two materials were mixed at a volume ratio of 1:1 to form a transfection mixture, the mixture was allowed to stand at a room temperature for 20 min and added into a culture plate, and an analysis at gene and protein levels was conducted after 48 h.

[2] = tested on: lung adenocarcinoma cells A549; assay: CCK8 proliferation activity assay; type: cell-based; conditions: 0, 1, 2, 3, and 4 days after transfection, FIG. 1
Description: as §1

A549 cells = assay: Tumor-bearing model of a nude mouse, intratumoral treatment; type: in vivo, BALB/c nude mice
Description: This example related to a process of constructing a tumor-bearing model of a nude mouse: 3- to 4-week-old BALB/c nude mice (SiPeiFu Laboratory Animal Technology Co., Ltd) were taken and used for an experiment after adapting to local conditions for 1 week, 2×10^7 of A549 cells were injected subcutaneously into left and right armpits of the mice, and when an implanted tumor reached 50 mm^3, a drug treatment was conducted.
This example related to a drug-targeted treatment process of a tumor-bearing model of a nude mouse: • The nude mice were divided into two groups: a cisplatin experimental group and a normal saline control group, with 5 nude mice in each group; • The nude mice in the experimental group were injected intraperitoneally with cisplatin (5 mg/kg body weight/week), 50 μM of a PIWI-interacting RNA piR-hsa-211106 agonist was injected directly into a tumor on a right side and piR-NC (Shanghai GenePharma Co., Ltd) was injected into a tumor on a left side as a control group of the cisplatin treatment group; • An equal volume of normal saline was injected intraperitoneally into the nude mice in the control group, the PIWI-interacting RNA piR-hsa-211106 agonist was used to treat the tumor as above, the PIWI-interacting RNA piR-hsa-211106 agonist was used for treatment every other day for 28 days, and the tumor volume was measured once a week; the mice were sacrificed at an end of the experiment, and xenografts were peeled off and photographed.

pyruvate carboxylase [3] = target: T1, pyruvate carboxylase (Homo sapiens, UniProt P11498); assay: Biotin-coupled probe RNA pull-down assay with western blot; type: binding; conditions: biotinylated piR-hsa-211106 probe, lung adenocarcinoma cell lysate; FIG. 10
T1 construct: 1×10^7 lung adenocarcinoma cells were harvested, lysed and subjected to an ultrasonic treatment; endogenous in cells
T1 sequence (P11498 21-1178): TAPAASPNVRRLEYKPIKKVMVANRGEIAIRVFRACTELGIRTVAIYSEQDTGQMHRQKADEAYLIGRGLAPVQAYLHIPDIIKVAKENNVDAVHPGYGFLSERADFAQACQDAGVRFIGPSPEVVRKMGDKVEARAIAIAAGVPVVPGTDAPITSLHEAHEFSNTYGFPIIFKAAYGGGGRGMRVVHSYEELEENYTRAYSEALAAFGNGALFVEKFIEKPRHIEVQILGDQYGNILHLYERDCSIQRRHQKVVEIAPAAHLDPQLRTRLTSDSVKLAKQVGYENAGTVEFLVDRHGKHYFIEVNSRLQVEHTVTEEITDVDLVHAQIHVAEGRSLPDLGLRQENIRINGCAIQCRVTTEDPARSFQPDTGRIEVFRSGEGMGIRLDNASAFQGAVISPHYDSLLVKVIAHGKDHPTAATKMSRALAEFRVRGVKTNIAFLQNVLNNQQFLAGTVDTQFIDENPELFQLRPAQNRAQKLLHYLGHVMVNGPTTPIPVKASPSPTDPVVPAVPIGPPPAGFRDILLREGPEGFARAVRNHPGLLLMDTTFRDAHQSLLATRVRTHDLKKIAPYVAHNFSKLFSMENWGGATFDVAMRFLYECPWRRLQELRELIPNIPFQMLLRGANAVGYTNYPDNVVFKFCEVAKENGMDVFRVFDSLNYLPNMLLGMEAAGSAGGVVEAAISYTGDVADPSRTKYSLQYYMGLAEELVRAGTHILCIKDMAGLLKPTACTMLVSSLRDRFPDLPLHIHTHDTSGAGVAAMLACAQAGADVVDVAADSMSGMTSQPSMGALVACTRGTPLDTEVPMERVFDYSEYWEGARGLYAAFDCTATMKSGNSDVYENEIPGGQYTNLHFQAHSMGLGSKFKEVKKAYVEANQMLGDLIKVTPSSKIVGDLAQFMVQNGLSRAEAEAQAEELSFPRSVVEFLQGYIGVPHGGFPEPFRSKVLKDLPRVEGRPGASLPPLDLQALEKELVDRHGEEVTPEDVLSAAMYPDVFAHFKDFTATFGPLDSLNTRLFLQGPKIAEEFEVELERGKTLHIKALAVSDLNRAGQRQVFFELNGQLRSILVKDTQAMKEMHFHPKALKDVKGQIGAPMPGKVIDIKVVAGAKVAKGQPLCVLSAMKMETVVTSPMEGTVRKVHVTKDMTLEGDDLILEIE

pyruvate carboxylase [4] = assay: Western blot analysis of protein expression level in lung adenocarcinoma cells; type: cell-based; conditions: GAPDH internal reference, FIG. 12
Description: as §1, with “h. […]” for “h.”
the protein samples were separated by an SDS-PAGE electrophoresis, the separated proteins were transferred to a PVDF membrane, the membrane was blocked with 5% powdered skim milk for 1 h, the membrane was washed, an incubation with a primary antibody (PC, GAPDH) was conducted overnight in a 4° C. refrigerator, the membrane was washed, an incubation with a secondary antibody was conducted at room temperature for 1 h, the membrane was washed, a target band was obtained by ECL chemiluminescence method, the band was subjected to a grayscale scanning by using a Quantity One software and a GAPDH internal reference was used for correction.

[5] = tested on: lung adenocarcinoma cells HCC2279; assay: Scratch experiment migration assay; type: cell-based; conditions: after transfection for two days, 0 h and 24 h after scratching, FIGS. 6 and 7
Description: as §1

[6] = tested on: lung adenocarcinoma cells A549; assay: Scratch experiment migration assay; type: cell-based; conditions: after transfection for two days, 0 h and 24 h after scratching, FIGS. 6 and 7
Description: as §1

pyruvate carboxylase [7] = assay: qRT-PCR analysis of gene expression level in lung adenocarcinoma cells; type: cell-based; conditions: FIG. 11
Description: as §1, with “h. […]” for “h.”

[8] = tested on: lung adenocarcinoma cells HCC2279; assay: Edu staining proliferation assay; type: cell-based; conditions: after transfection for two days, FIGS. 2 and 3
Description: as §1, with “h. […]” for “h.”

[9] = tested on: lung adenocarcinoma cells A549; assay: Edu staining proliferation assay; type: cell-based; conditions: after transfection for two days, FIGS. 2 and 3
Description: as §1, with “h. […]” for “h.”

[10] = tested on: lung adenocarcinoma cells HCC2279; assay: Transwell chamber migration assay; type: cell-based; conditions: after transfection for two days, 24 h migration, FIGS. 4 and 5
Description: as §1

[11] = tested on: lung adenocarcinoma cells A549; assay: Transwell chamber migration assay; type: cell-based; conditions: after transfection for two days, 24 h migration, FIGS. 4 and 5
Description: as §1

[12] = tested on: lung adenocarcinoma cells HCC2279; assay: Apoptosis by flow cytometry (Annexin V-FITC/PI); type: cell-based; conditions: after transfection for two days, FIGS. 8 and 9
Description: (§2) This example related to a process of transfecting an agonist to lung adenocarcinoma cells: after the lung adenocarcinoma cells were passaged to a cell density of about 30-50%, the agonist was transfected to the lung adenocarcinoma cells by lipo3000. […]
(§3) This example related to a detection process of apoptosis of lung adenocarcinoma cells A549 and HCC2279 by a flow cytometry: the lung adenocarcinoma cells were cultured, the cells in the experimental group were transfected with a PIWI-interacting RNA piR-hsa-211106, after transfection for two days, apoptosis was detected by Annexin V-FITC/PI (Shanghai YEASEN Biotechnology Co., Ltd): • (1) after the lung adenocarcinoma cells were digested with a trypsin without EDTA, centrifugation was conducted at 300 g and 4° C. for 5 min and the cells were collected; • (2) the cells were washed twice with a pre-cooled PBS, centrifugation was conducted at 300 g and 4° C. for 5 min each time and 1-5×10^5 cells were collected; • (3) the PBS was pipetted and discarded, and 1× binding buffer was added to resuspend the cells; • (4) annexin V-FITC and a PI staining solution were added, gentle mixing was conducted, and reaction was conducted in dark at room temperature for 10-15 min; and • (5) 1× binding buffer was added, even mixing was conducted, an obtained mixture was placed on ice, and detection was conducted with the flow cytometry within 1 h.

[13] = tested on: lung adenocarcinoma cells A549; assay: Apoptosis by flow cytometry (Annexin V-FITC/PI); type: cell-based; conditions: after transfection for two days, FIGS. 8 and 9
Description: as §2, §3

[14] = injected into tumors in nude mice, versus control groups

piR-hsa-211106: PIWI-interacting RNA, SEQ ID NO:1 TCCGGCTCGAAGGACTTCGTCTGTAATTTT; used as double-strand agonist with cholesterol, thio skeleton and methoxy modifications (cholesterol, phosphorothioate and 2'-OMe modifications, pattern not given here, duplex)
cell proliferation activity (OD value at 450 nm, CCK8) [1]: significantly inhibit the proliferation
cell proliferation activity (OD value at 450 nm, CCK8) [2]: significantly inhibit the proliferation
therapeutic effect compared with positive control cisplatin (A549 cells; 50 μM agonist injected directly into tumor every other day for 28 days, cisplatin 5 mg/kg body weight/week intraperitoneally, FIGS. 13, 14 and 15): comparable to that of the positive control group treated with cisplatin; also recorded: comparable therapeutic effect as the positive control drug cisplatin
growth of lung adenocarcinoma in vivo (A549 cells; A549 tumor in nude mice, agonist intratumoral every other day for 28 days): capable of inhibiting growth of lung adenocarcinoma in vivo
effect in combination with cisplatin (A549 cells; agonist intratumoral plus cisplatin 5 mg/kg body weight/week intraperitoneally, 28 days): increases chemical sensitivity of the chemotherapeutic drug cisplatin and has a synergistic effect
tumor volume (A549 cells; [14]): smaller than those of the control groups
tumor weight (A549 cells; [14]): smaller than those of the control groups
binding to pyruvate carboxylase (RNA pull-down) (pyruvate carboxylase [3]): binds to the PC; also recorded: can bind to a pyruvate carboxylase
expression of pyruvate carboxylase at a protein level (WB) (pyruvate carboxylase [4]): can regulate an expression of a pyruvate carboxylase at a protein level
migration ability (scratch experiment, relative migration rate) [5]: significantly inhibit the migration ability
migration ability (scratch experiment, relative migration rate) [6]: significantly inhibit the migration ability
expression of pyruvate carboxylase (gene expression level, qRT-PCR) (pyruvate carboxylase [7]): significantly inhibit an expression
proportion of proliferating cells (Edu staining) [8]: significantly inhibit the growth
proportion of proliferating cells (Edu staining) [9]: significantly inhibit the growth
migration ability (Transwell chamber, migrated cells counted) [10]: significantly inhibit the migration ability
migration ability (Transwell chamber, migrated cells counted) [11]: significantly inhibit the migration ability
apoptosis (flow cytometry) [12]: significantly cause the apoptosis
apoptosis (flow cytometry) [13]: significantly cause the apoptosis

Source: patent publication US12180476B2, “Use of PIWI-interacting RNA piR-hsa-211106” (Qingdao University, priority 2022, dated 2024)
